This note sets out measurements from patent publication US20150299250A1, “MACROCYCLIC COMPOUNDS AND USES THEREOF” (ADELAIDE RESEARCH & INNOVATION PTY LTD, priority 2012, published 2015).

Experiment [1] addresses bovine α-chymotrypsin (bCT) (Bos taurus, UniProt P00766). Briefly: Bovine chymotrypsin spectrophotometric assay (Suc-Ala-Ala-Pro-Phe-pNA). Format: biochemical. As to the method: The activity of bCT was assayed spectrophotometrically with a Varian Cary 5000 UV-VIS-NIR spectrophotometer equipped with a thermostated multicell holder at 25.0±0.1° C. Assay buffer was: Tris-HCl (77 mM), CaCl2 (20 mM), pH 7.8 (pH optimum of α-chymotrypsin {3}). A solution of bCT (21.9 μg/mL) in aq HCl (1 mM) was prepared daily by a 1:40 dilution of a stock solution (874 μg/mL) in aq HCl (1 mM) and kept at 0° C. A 1:100 dilution in ice-cold aq HCl (1 mM) was prepared immediately before starting each measurement. Stock solutions of the substrate Suc-Ala-Ala-Pro-Phe-pNA (10 mM) and all inhibitors (5 mM) were freshly prepared in DMSO and stored at r.t. All compounds were analyzed at five different inhibitor concentrations, [I]. Progress curves were monitored at 405 nm over 6 min and characterized by a linear steady state turnover of the substrate.
The Inhibition studies were performed in the presence of 6% v/v DMSO in a volume of 1 mL containing 0.011 μg/mL bCT, different concentrations of Suc-Ala-Ala-Pro-Phe-pNA (10-100 μM) and inhibitor. Into a cuvette containing 890 μL assay buffer, 10 μL of substrate solution (1-10 mM), inhibitor stock, and DMSO were added to give a total volume of […]. After thoroughly mixing the contents of the cuvette, the enzymatic reaction was initiated by adding 50 μL of bCT solution. Uninhibited enzyme activity was determined by adding DMSO instead of inhibitor solution. Non-enzymatic hydrolysis of Suc-Ala-Ala-Pro-Phe-pNA was analyzed by adding DMSO and 1 mM aqueous HCl instead of inhibitor and enzyme solution, respectively, and found to be negligible. The rate of enzyme-catalyzed hydrolysis of 100 μM substrate was determined without inhibitor in each experiment and was set to 100%. Ki values of inhibitors were determined graphically according to Dixon {4} using mean values of percentage rates obtained in three separate experiments at two different substrate concentrations, [S].

Experiment [2] has as its system STA-ET-1 Ewing's sarcoma cells. Briefly: Cell viability assay (7AAD, 48 hours), STA-ET-1. As to conditions: 48 hours exposure; read-out: Cancer cell lines IC50 (μM) STA-ET-1. It counts as cell-based. As to the method: (§1) Cell viability assays were performed as previously described. Briefly, cells were seeded in 96 well microtiterplates at a density of 3×10^4 cells per well in the presence of the indicated chemical. Cells were harvested 48 hours post-treatment, centrifuged at 1,300×g, washed in phosphate-buffered saline (PBS) and stained with 7AAD solution (2 μg/mL) (7-amino-actinomycin-D, Invitrogen, Carlsbad, Calif.) for 10 mins at room temperature. Viable cells were determined with the use of a FACS Calibur flow cytometer (Becton Dickinson Immunocytometry Systems), and analyzed with the use of FLOWJO (Tree Star, Inc) and GraphPad Prism (GraphPad Software Inc).
(§2) WE-68 and VH-64 Ewing's sarcoma cells were kindly supplied by F. van Valen (Department of Orthopaedic Surgery, Westfalische-Wilhelms-University, Germany).TC-252 and STA-ET-1 Ewing's sarcoma cells were kindly provided by G. Hamilton (Department of Surgery, University of Vienna, Austria) or P. Ambros (Children's Cancer Research Institute, St Anna Children's Hospital, Vienna, Austria). Primary human embryonic fibroblasts or primary human osteoblasts were collected from the Women's and Children's Hospital (North Adelaide, South Australia, Australia) or Royal Adelaide Hospital with patient consent. Mouse Embryonic Fibroblasts (MEFs) and its p53-null derivative were kindly supplied by Guillermina Lozano (Department of Genetics, Anderson Cancer Centre, University of Texas, Houston, Tex., USA). WE-68 cell lines were grown in RPMI-1640 media, whilst human embryonic fibroblasts and MEFs were grown in Dulbecco's Modified Eagle's Medium (DMEM). Media was supplemented with 10% FCS, 1% PSG and 10 mM HEPES. All cells were maintained at 37° C. in a humidified atmosphere of 5% CO2.

Experiment [3] addresses T1, 20S proteasome T-L activity (Oryctolagus cuniculus, UniProt G1SWK8).
T1 construct: purchased Boston Biochem
T1 sequence (G1SWK8 1-271): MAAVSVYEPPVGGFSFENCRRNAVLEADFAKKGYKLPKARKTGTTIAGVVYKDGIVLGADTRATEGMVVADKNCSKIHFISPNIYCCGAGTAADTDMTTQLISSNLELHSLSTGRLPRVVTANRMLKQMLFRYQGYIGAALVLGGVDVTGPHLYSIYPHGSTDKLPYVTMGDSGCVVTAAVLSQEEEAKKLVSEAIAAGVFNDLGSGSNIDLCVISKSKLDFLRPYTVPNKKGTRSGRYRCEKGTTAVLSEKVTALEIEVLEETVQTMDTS
The experiment is described as follows: In vitro proteasome activity assay, T-L (Ac-RLR-AMC). It counts as biochemical, rabbit. As to conditions: for IC50: purified 20S proteasome, highest concentration tested 25,000 nM. As to the method:
(§3) The assays were performed in vitro using purified 20S proteasome/inhibitor mixtures, with the activity of each subunit of the proteasome assessed upon incubation with its respective target peptide.
(§4) Purified rabbit 20S proteasome and fluorogenic CT-L substrate (Suc-LLVY-AMC) were purchased from Boston Biochem (Cambridge, Mass., USA). The T-L and CP-L fluorogenic substrates (Ac-RLR-AMC and Z-nLPnLD-AMC) were purchased from Enzo Life Sciences (Farmingdale, N.Y., USA). The 20S proteasome was diluted to 0.2 μg/μL in 20S proteasome buffer (50 mM HEPES pH 7.6, 150 mM NaCl and 1 mM DDT) and stored at −80° C. Purified 20S proteasome (8 ng) was pre-incubated with the indicated concentrations of inhibitors for 15 minutes and subsequently added to the AMC-labeled substrate peptide (50 μM) in assay buffer (25 mM HEPES, pH 7.5, 0.5 mM EDTA, 0.05% NP-40, and 0.001% SDS (w/v)) at 37° C. for 2 hours.

Experiment [4] has as its system panel of sarcoma cell lines (WE-68, VH-64, STA-ET-1, TC-252). Briefly: Cell viability assay, panel of four sarcoma cell lines (average). It counts as cell-based. As to conditions: for IC50: average of four sarcoma cell lines, read-out: Average IC50 for cancer cell lines. As to the method:
as §1, §2

In experiment [5] the test system is normal cell lines (fibroblasts, osteoblasts). The experiment is described as follows: Cell viability assay, normal cell lines (average). It counts as cell-based. As to conditions: Homo sapiens; average of fibroblasts and osteoblasts. As to the method: as §1, §2
In experiment [6] the test system is TC-252 Ewing's sarcoma cells. Briefly: Cell viability assay (7AAD, 48 hours), TC-252. It counts as cell-based. As to conditions: 48 hours exposure; read-out: Cancer cell lines IC50 (μM) TC-252. As to the method: as §1, §2
Experiment [7] deals with T2, 20S proteasome CP-L activity (Oryctolagus cuniculus, UniProt A0A5F9DQW2).
T2 construct: Purified rabbit 20S proteasome
The experiment is described as follows: In vitro proteasome activity assay, CP-L (Z-nLPnLD-AMC). As to conditions: purified 20S proteasome; highest concentration tested 25,000 nM. It counts as biochemical, rabbit. As to the method: We initially determined the ability of the novel tripeptide MG132 analogues 1-6 and the macrocycles 3a and 4a to inhibit the three separate protease activities of the 20S proteasome (CT-L, -T-L and CP-L). The assays were performed in vitro using purified 20S proteasome/inhibitor mixtures, with the activity of each subunit of the proteasome assessed upon incubation with its respective target peptide. […] In addition, there is no apparent clear-cut preference for the length of tether (compare compounds 1 to 4), while the introduction of an aryl group at P3 (as in 6) is well tolerated.
as §4, with “hours. Fluorescent substrate cleavage by the 20S proteasome was linear during this incubation timeframe (Supplementary Figure S4. Hydrolysed 7-amino-4-methylcoumarin (AMC) was subsequently detected with the FLUOstar OPTIMA microplatefluorometer at excitation/emission of 390/460 nm. The activity was estimated in relative fluorescence units and half of the maximal inhibitory activity of the proteasome is represented by IC50 values. A minimum of three biological replicates were performed for each data point.” for “hours.”

Experiment [8] deals with VH-64 Ewing's sarcoma cells. The experiment is described as follows: Cell viability assay (7AAD, 48 hours), VH-64. Format: cell-based. As to conditions: 48 hours exposure; read-out: Cancer cell lines IC50 (μM) VH-64. As to the method: as §1, §2
In experiment [9] the test system is primary human embryonic fibroblasts. Briefly: Cell viability assay (7AAD, 48 hours), normal fibroblasts. Format: cell-based. As to conditions: Fibroblast, 48 hours exposure, read-out: Normal cell lines IC50 (μM) Fibroblasts. As to the method:
as §1, §2

The test system of experiment [10] is WE-68 Ewing's sarcoma cells. The experiment is described as follows: Cell viability assay (7AAD, 48 hours), WE-68. As to conditions: 48 hours exposure; read-out: Cancer cell lines IC50 (μM) WE-68. It counts as cell-based. As to the method:
as §1, §2

Experiment [11] has as its system primary human osteoblasts. Briefly: Cell viability assay (7AAD, 48 hours), normal osteoblasts. It counts as cell-based. As to conditions: Osteoblast, 48 hours exposure, read-out: Normal cell lines IC50 (μM) Osteoblasts. As to the method: as §1, §2
In experiment [12] the target is T3, 20S proteasome chymotrypsin-like (CT-L) activity (Oryctolagus cuniculus, UniProt G1T4Q9).
T3 sequence (G1T4Q9 1-263): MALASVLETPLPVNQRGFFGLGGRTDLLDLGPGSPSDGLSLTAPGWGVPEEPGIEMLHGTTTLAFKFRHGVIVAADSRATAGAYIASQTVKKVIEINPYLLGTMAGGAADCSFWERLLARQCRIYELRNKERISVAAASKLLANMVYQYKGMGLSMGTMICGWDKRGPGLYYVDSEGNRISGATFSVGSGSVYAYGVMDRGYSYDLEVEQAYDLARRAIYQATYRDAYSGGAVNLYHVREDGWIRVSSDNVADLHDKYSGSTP
The experiment is described as follows: In vitro proteasome activity assay, CT-L (Suc-LLVY-AMC). It counts as biochemical, rabbit. As to conditions: purified 20S proteasome. As to the method: as §3, §4

Molecules are shown by their SMILES.

T2 sequence (A0A5F9DQW2 1-212): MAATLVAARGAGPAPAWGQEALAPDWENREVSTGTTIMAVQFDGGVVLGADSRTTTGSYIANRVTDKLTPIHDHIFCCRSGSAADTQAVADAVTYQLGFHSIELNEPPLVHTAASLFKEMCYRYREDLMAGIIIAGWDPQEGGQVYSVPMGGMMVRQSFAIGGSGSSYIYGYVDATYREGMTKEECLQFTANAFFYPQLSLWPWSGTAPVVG

As a reminder, the Ki is a measure of affinity in units of concentration, obtained from inhibition or displacement. A higher Ki goes with weaker binding. Consider `O=CC(Cc1ccccc1)NC(=O)C1CCCCOc2ccc(cc2)CCC(=O)c2ccc([nH]2)C(=O)N1` (centres unmarked) [Compound 2d], for which, in experiment [1], the affinity, expressed as Ki, was 431 ± 5 nM.
As usually defined, the IC50 is the concentration that inhibits the measured activity by half. Take `CC(C)C[C@H](NC(=O)[C@H](Cc1ccccc1)NC(=O)c1cnccn1)B(O)O` [Bortezomib, reference compound]: the IC50 in experiment [2] was below 0.0008 µM; in experiment [3], above 25000 nM; in [4], 20 nM; in experiment [5], 150 nM; in [6] it was 0.01 µM; in experiment [7], 438 nM. Also, the IC50 is 0.04 µM in experiment [8], 0.02 µM in experiment [9], 0.02 µM in experiment [10] and 0.28 µM in experiment [11]. Besides, the “activation of T-L activity” value in experiment [3] is listed as “^fBortezomib activated T-L activity by 32%”. The Therapeutic window entry in [4] (fold change in potency (IC50) against cancer cell line versus normal cell line) is “×9.1”.
In the case of `O=CC(Cc1ccccc1)NC(=O)C1Cc2ccc(cc2)OCCCCOc2ccc(cc2)CCC(=O)c2ccc([nH]2)C(=O)N1` (centres unmarked) [Compound 3d], the affinity in [1], expressed as Ki, was 33 ± 5 nM.
`CC(C)CC1NC(=O)C(NC(=O)OCc2ccccc2)CCCCn2cc(nn2)COc2ccc(cc2)CC(C=O)NC1=O` (centres unmarked) [Compound 4a]: the concentration for half-maximal inhibition (IC50) is 37.6 µM in experiment [2]; above 25000 nM in experiment [3]; 31700 nM in experiment [4]; 250 nM in [12]; 39.4 µM in experiment [6]; above 25000 nM in experiment [7]. Also, the IC50 in [8] was above 50 µM; in [9], above 50 µM; in [10], 18 µM; in [11], above 50 µM.
On to `CC(C)CC(C=O)NC(=O)C1Cc2ccc(cc2)OCCCCOc2ccc(cc2)CCC(=O)c2ccc([nH]2)C(=O)N1` (centres unmarked) [Compound 3c], for which, in [1], the Ki was 1920 ± 167 nM.
For the compound `O=C[C@H](Cc1ccccc1)NC(=O)[C@@H]1CCCCCCCCCCCC(=O)c2ccc([nH]2)C(=O)N1` [Compound 1d, (S)-2,16-dioxo-N—((S)-1-oxo-3-phenylpropan-2-yl)-3,20-diazabicyclo[15.2.1]icosa-1(19),17-diene-4-carboxamide], in experiment [1], affinity was put at a Ki of 2520 ± 248 nM.
